{
  "source": "paper PMC5677563",
  "about": "(Inorganic chemistry, 2017)",
  "target": "T1, cytochrome c′ (AXCP) (Achromobacter xylosoxidans, UniProt P00138, L16G)",
  "T1 sequence (P00138 1-127 L16G)": "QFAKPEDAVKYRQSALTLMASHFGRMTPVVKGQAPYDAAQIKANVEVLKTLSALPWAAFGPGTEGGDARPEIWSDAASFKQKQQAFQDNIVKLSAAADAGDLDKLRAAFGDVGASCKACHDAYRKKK",
  "test": "UV-vis titration",
  "assay_type": "binding",
  "data": [
    {"smiles": "O=NO", "note": "[nitrite]", "values": [
      {"measurement": "Kd", "value": "500 ± 150", "unit": "µM"}
    ]}
  ]
}
